Data reported in ChEMBL document CHEMBL2407075, “Sulphonamido-quinoxalines: search for anticancer agent” (Eur J Med Chem, 2013).

Experiment: Oral bioavailability in human
Assay type: ADME, organism-based
Conditions: in silico prediction

| Compound | bioavailability [%] |
| --- | --- |
| O=S(=O)(Nc1ccc(O)cc1)c1ccc2nc(-c3ccccc3)c(-c3ccccc3)nc2c1 | 93.9 |
| O=C(O)c1ccccc1NS(=O)(=O)c1ccc2nc(-c3ccccc3)c(-c3ccccc3)nc2c1 | 83.6 |
| O=[N+]([O-])c1cccc(NS(=O)(=O)c2ccc3nc(-c4ccccc4)c(-c4ccccc4)nc3c2)c1 | 85.6 |
| CC(=O)c1cccc(NS(=O)(=O)c2ccc3nc(-c4ccccc4)c(-c4ccccc4)nc3c2)c1 | 96.9 |
| O=[N+]([O-])c1ccc(NS(=O)(=O)c2ccc3nc(-c4ccccc4)c(-c4ccccc4)nc3c2)cc1 | 87.6 |

Results, then the compound that gave them:

| bioavailability [%] | Compound |
| --- | --- |
| 100 | O=S(=O)(Nc1ccc2ccccc2c1)c1ccc2nc(-c3ccccc3)c(-c3ccccc3)nc2c1 |
| 100 | Cc1ccnc(NS(=O)(=O)c2ccc3nc(-c4ccccc4)c(-c4ccccc4)nc3c2)c1 |
| 94.7 | CC(=O)NS(=O)(=O)c1ccc2nc(-c3ccccc3)c(-c3ccccc3)nc2c1 |
